The record followed here is article PMC4448987, “A neuroligin-1-derived peptide stimulates phosphorylation of the NMDA receptor NR1 subunit and rescues MK-801-induced decrease in long-term potentiation and memory impairment” (Pharmacology Research & Perspectives, 2015).

This experiment relates to hippocampal slices (LTP). Kind of experiment: LTP in acute hippocampal slices, peptide added directly to aCSF. Further details: species or system mice. The following applies: neurolide-1 alone, 1 µmol/L added to running artificial CSF during baseline before LTP induction. Here is the method: Measurements were made in oxygenated aCSF at room temperature (1.1 mL/min). Schaeffer collaterals were stimulated with a bipolar concentric electrode (TM33CCNON; World Precision Instruments, Sarasota, FL). The field potential in the stratum radiatum of the CA1 area of the hippocampus was recorded with an extracellular glass microelectrode (4–6 MΩ, filled with aCSF), positioned at least 500 μm away from the stimulation electrode. The stimulus intensity was set 0.03 mA above the threshold. After a 30-min baseline was obtained with stimulation at 0.05 Hz, long-term potentiation (LTP) was induced by stimulating the Schaeffer collaterals at 100 Hz for 1 s four times at 20 s intervals. A new baseline was established over the following 30 min. Potentiation was estimated by comparing the rising slope of the field excitatory postsynaptic potential (fEPSP) before and 25–30 min after high-frequency stimulation.
Supplementary file prp20003-e00126-sd2.tif: Figure S1. Effect of neurolide-1 on LTP in acute hippocampal slices. Neurolide-1 at a concentration of 1 µmol/L was added directly to the running artificial CSF during baseline measurement before the induction of LTP.
Supplementary Figure S1. Effect of neurolide-1 on LTP in acute hippocampal slices. Neurolide-1 at a concentration of 1 µM was added directly to the running artificial CSF during baseline measurement before the induction of LTP.

With SEGNRWSNSTKGLFQRA [neurolide-1], the “effect on LTP, direct treatment of hippocampal slices” value was “did not affect LTP”.
